Our source for the IC50 values is patent US20240228506A1, “RIPK1 INHIBITORS AND METHODS OF USE” (Merck Sharp & Dohme LLC, priority 2021, published 2024).

Structures are written as SMILES.

This experiment addresses T1, GST-RIPK1 (recombinant GST-RIPK1 kinase domain (residues 1-327)) (Homo sapiens, UniProt Q13546).
T1 construct: recombinant GST-RIPK1 kinase domain (residues 1-327) enzyme; made in house; host or cells: baculovirus-transfected Sf21 insect cells
T1 sequence (Q13546 1-327): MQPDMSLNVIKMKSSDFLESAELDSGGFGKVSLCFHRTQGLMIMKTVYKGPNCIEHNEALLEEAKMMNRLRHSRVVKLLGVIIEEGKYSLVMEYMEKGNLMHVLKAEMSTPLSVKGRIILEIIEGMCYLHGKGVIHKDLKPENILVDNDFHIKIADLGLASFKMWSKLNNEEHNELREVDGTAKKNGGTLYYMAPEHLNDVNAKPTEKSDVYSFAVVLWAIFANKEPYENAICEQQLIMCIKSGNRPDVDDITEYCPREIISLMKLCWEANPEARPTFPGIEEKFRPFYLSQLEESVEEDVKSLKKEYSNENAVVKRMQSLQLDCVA
In words: RIPK1-ADP-Glo enzymatic assay. The settings on record: 25 nM GST-RIPK1, 300 μM ATP, 3 μM dephosphorylated-MBP; 30 minutes pre-incubation, 150 minutes reaction; ten-point titration. In kind it is biochemical. In short, it runs like this:
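Ten-point 1:3 titrations from 100000 nM, 1% DMSO, were preincubated 30 min with 25 nM GST-RIPK1 (1-327) before starting with 300 μM ATP plus 3 μM dephosphorylated MBP; 150 min reaction. ADP-Glo luminescence measured ATP-to-ADP conversion; EC50 by four-parameter sigmoidal regression.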
(ADP-Glo first removes unused ATP, then detects ADP through luciferase.)
A word on the IC50: it is the concentration that gives 50% inhibition. With `CC(C)(C(=O)N1C[C@@H]2C[C@H]1c1cncc(Cl)c1O2)C(F)F` [Compound 2-2, 1-((2S,5S)-9-Chloro-2,3-dihydro-2,5-methanopyrido[3,4-f][1,4]oxazepin-4(5H)-yl)-3,3-difluoro-2,2-dimethylpropan-1-one], the IC50 came out at 0.139 µM.

Turning to `O=C(N1C[C@@H]2C[C@H]1c1cncc(Cl)c1O2)C12CCC(F)(CC1)C2` [Compound 2-3, ((2S,5S)-9-Chloro-2,3-dihydro-2,5-methanopyrido[3,4-f][1,4]oxazepin-4(5H)-yl)(4-fluorobicyclo[2.2.1]heptan-1-yl)methanone], the IC50 was 0.008 µM.

For the molecule `O=C(N1C[C@@H]2C[C@H]1c1cncc(Cl)c1O2)C12CCC(C(F)(F)F)(CC1)C2` [Compound 2-4, [(2S,5S)-9-chloro-2,3-dihydro-2,5-methanopyrido[3,4-f][1,4]oxazepin-4(5H)-yl][4-(trifluoromethyl)bicyclo [2.2.1]heptan-1-yl]methanone], the IC50 was 0.01 µM.

In the case of `CC(F)(F)C(C)(C)C(=O)N1C[C@@H]2C[C@H]1c1cncc(Cl)c1O2` [Compound 2-5, 1-[(2S,5S)-9-chloro-2,3-dihydro-2,5-methanopyrido[3,4-f][1,4]oxazepin-4(5H)-yl]-3,3-difluoro-2,2-dimethylbutan-1-one], the half-inhibitory concentration (IC50) was 0.018 µM.

Regarding `CC(C)(C(=O)N1C[C@@H]2C[C@H]1c1cncc(Cl)c1O2)C1CC1` [Compound 2-6], the IC50 was 0.024 µM.

For `O=C(N1C[C@@H]2C[C@H]1c1cncc(F)c1O2)C12CCC(F)(CC1)C2` [Compound 2-7, (4-fluorobicyclo[2.2.1]heptan-1-yl)[(2S,5S)-9-fluoro-2,3-dihydro-2,5-methanopyrido[3,4-f][1,4]oxazepin-4(5H)-yl]methanone], the half-maximal inhibitory concentration (IC50) amounted to 0.026 µM.

Take `CC(C)(C)C(=O)N1C[C@@H]2C[C@H]1c1cncc(Br)c1O2` [Compound 2-8, 1-((2S,5S)-9-bromo-2,3-dihydro-2,5-methanopyrido[3,4-f][1,4]oxazepin-4(5H)-yl)-2,2-dimethylpropan-1-one]: the IC50 was determined as 0.394 µM.

Turning to `CCC(C)(C)C(=O)N1C[C@@H]2C[C@H]1c1cncc(Cl)c1O2` [Compound 2-9, 1-((2S,5S)-9-chloro-2,3-dihydro-2,5-methanopyrido[3,4-f][1,4]oxazepin-4(5H)-yl)-2,2-dimethylbutan-1-one], the IC50 was 0.041 µM.

For the molecule `CC1(C(=O)N2C[C@@H]3C[C@H]2c2cncc(Cl)c2O3)CCC1` [Compound 2-10, ((2S,5S)-9-chloro-2,3-dihydro-2,5-methanopyrido[3,4-f][1,4]oxazepin-4(5H)-yl)(1-methylcyclobutyl)methanone], the IC50 is 0.227 µM.

On to `CC(F)(F)C1(C(=O)N2C[C@@H]3C[C@H]2c2cncc(Cl)c2O3)CCC1` [Compound 2-11, ((2S,5S)-9-chloro-2,3-dihydro-2,5-methanopyrido[3,4-f][1,4]oxazepin-4(5H)-yl)(1-(1,1-difluoroethyl)cyclobutyl) methanone], for which the IC50 turned out to be 0.057 µM.

Regarding `O=C(N1C[C@@H]2C[C@H]1c1cncc(Cl)c1O2)C1(C(F)F)CCC1` [Compound 2-12, ((2S,5S)-9-chloro-2,3-dihydro-2,5-methanopyrido[3,4-f][1,4]oxazepin-4(5H)-yl)(1-(difluoromethyl)cyclobutyl) methanone], the IC50 was determined as 0.124 µM.

For `Cc1cncc2c1O[C@H]1C[C@@H]2N(C(=O)C(C)(C)C)C1` [Compound 2-13, 2,2-dimethyl-1-((2S,5S)-9-methyl-2,3-dihydro-2,5-methanopyrido[3,4-f][1,4]oxazepin-4(5H)-yl)propan-1-one], the IC50 came to 1.1 µM.

Take `O=C(N1C[C@@H]2C[C@H]1c1cncc(F)c1O2)C12CCC(C(F)(F)F)(CC1)C2` [Compound 2-14, ((2S,5S)-9-fluoro-2,3-dihydro-2,5-methanopyrido[3,4-f][1,4]oxazepin-4(5H)-yl)(4-(trifluoromethyl)bicyclo [2.2.1]heptan-1-yl)methanone]: the IC50 was 0.02 µM.

In the case of `O=C(N1C[C@@H]2C[C@H]1c1cncc(F)c1O2)C12CCC(F)(CC1)CC2` [Compound 2-15, ((2S,5S)-9-fluoro-2,3-dihydro-2,5-methanopyrido[3,4-f][1,4]oxazepin-4(5H)-yl)(4-fluorobicyclo[2.2.2]octan-1-yl)methanone], the IC50 was found to be 0.081 µM.

In the case of `CC(C)(C(=O)N1C[C@@H]2C[C@H]1c1cncc(F)c1O2)C1CC1` [Compound 2-16, 2-cyclopropyl-1-((2S,5S)-9-fluoro-2,3-dihydro-2,5-methanopyrido[3,4-f][1,4]oxazepin-4(5H)-yl)-2-methylpropan-1-one], the 50% inhibitory concentration (IC50) came out at 0.074 µM.

As for `C#Cc1cncc2c1O[C@H]1C[C@@H]2N(C(=O)C(C)(C)C)C1` [Compound 2-17, 1-((2S,5S)-9-Ethynyl-2,3-dihydro-2,5-methanopyrido[3,4-f][1,4]oxazepin-4(5H)-yl)-2,2-dimethylpropan-1-one], the IC50 stood at 0.05 µM.

Consider `CC(C)(C)C(=O)N1C[C@@H]2C[C@H]1c1cncc(C#Cc3ccccc3)c1O2` [Compound 2-20, 2,2-Dimethyl-1-((2S,5S)-9-(phenylethynyl)-2,3-dihydro-2,5-methanopyrido[3,4-f][1,4]oxazepin-4(5H)-yl)propan-1-one], for which the IC50 was 0.072 µM.

`O=C(N1C[C@@H]2C[C@H]1c1cncc(F)c1O2)C12CCC(CC1)C2` [Compound 2-21, bicyclo[2.2.1]heptan-1-yl((2S,5S)-9-fluoro-2,3-dihydro-2,5-methanopyrido[3,4-f][1,4]oxazepin-4(5H)-yl)methanone]: the half-inhibitory concentration (IC50) was 0.037 µM.

With `CC(F)(F)C(C)(C)C(=O)N1C[C@@H]2C[C@H]1c1cncc(F)c1O2` [Compound 2-22, 3,3-difluoro-1-((2S,5S)-9-fluoro-2,3-dihydro-2,5-methanopyrido[3,4-f][1,4]oxazepin-4(5H)-yl)-2,2-dimethylbutan-1-one], the IC50 is 0.067 µM.

As to `CC1(C(=O)N2C[C@@H]3C[C@H]2c2cncc(F)c2O3)CCCC1` [Compound 2-23, ((2S,5S)-9-fluoro-2,3-dihydro-2,5-methanopyrido[3,4-f][1,4]oxazepin-4(5H)-yl)(1-methylcyclopentyl) methanone], the IC50 was 0.074 µM.

In the case of `N#CC12CCC(C(=O)N3C[C@@H]4C[C@H]3c3cncc(F)c3O4)(C1)C2` [Compound 2-24, 4-((2S,5S)-9-fluoro-2,3,4,5-tetrahydro-2,5-methanopyrido[3,4-f][1,4]oxazepine-4-carbonyl)bicyclo[2.1.1] hexane-1-carbonitrile], the IC50 is 0.111 µM.

As for `CC1(C(=O)N2C[C@@H]3C[C@H]2c2cncc(Cl)c2O3)CCCC1` [Compound 2-25, ((2S,5S)-9-chloro-2,3-dihydro-2,5-methanopyrido[3,4-f][1,4]oxazepin-4(5H)-yl)(1-methylcyclopentyl) methanone], the concentration for half-maximal inhibition (IC50) was 0.079 µM.

For the molecule `N#CC12CCC(C(=O)N3C[C@@H]4C[C@H]3c3cncc(Cl)c3O4)(C1)C2` [Compound 2-26, 4-((2S,5S)-9-chloro-2,3,4,5-tetrahydro-2,5-methanopyrido[3,4-f][1,4]oxazepine-4-carbonyl)bicyclo[2.1.1] hexane-1-carbonitrile], the IC50 is 0.087 µM.

As to `Cc1ncc2c(c1F)O[C@H]1C[C@@H]2N(C(=O)C23CCC(C(F)(F)F)(CC2)C3)C1` [Compound 2-27, ((2S,5S)-9-Fluoro-8-methyl-2,3-dihydro-2,5-methanopyrido[3,4-f][1,4]oxazepin-4(5H)-yl)(4-(trifluoromethyl)bicyclo[2.2.1]heptan-1-yl)methanone], the IC50 stood at 0.047 µM.

On to `Cc1ncc2c(c1F)O[C@H]1C[C@@H]2N(C(=O)C23CCC(F)(CC2)C3)C1` [Compound 2-28, ((2S,5S)-9-fluoro-8-methyl-2,3-dihydro-2,5-methanopyrido[3,4-f][1,4]oxazepin-4(5H)-yl)(4-fluorobicyclo[2.2.1]heptan-1-yl)methanone], for which the half-inhibitory concentration (IC50) amounted to 0.059 µM.

On to `O=C(N1C[C@@H]2C[C@H]1c1cncc(Cl)c1O2)C12CCC(C1)C2` [Compound 2-29, bicyclo[2.1.1]hexan-1-yl((2S,5S)-9-chloro-2,3-dihydro-2,5-methanopyrido[3,4-f][1,4]oxazepin-4(5H)-yl)methanone], for which the IC50 is 0.124 µM.

As for `O=C(N1C[C@@H]2C[C@H]1c1cncc(F)c1O2)C12CCC(C1)C2` [Compound 2-30, bicyclo[2.1.1]hexan-1-yl((2S,5S)-9-fluoro-2,3-dihydro-2,5-methanopyrido[3,4-f][1,4]oxazepin-4(5H)-yl)methanone], the IC50 came out at 0.156 µM.

Take `O=C(N1C[C@@H]2C[C@H]1c1cncc(Cl)c1O2)C12CCC(CC1)C2` [Compound 2-31, Bicyclo[2.2.1]heptan-1-yl((2S,5S)-9-chloro-2,3-dihydro-2,5-methanopyrido[3,4-f][1,4]oxazepin-4(5H)-yl)methanone]: the IC50 is 0.02 µM.

As to `C#Cc1cncc2c1O[C@H]1C[C@@H]2N(C(=O)C(C)(C)C(F)F)C1` [Compound 2-32, 1-((2S,5S)-9-Ethynyl-2,3-dihydro-2,5-methanopyrido[3,4-f][1,4]oxazepin-4(5H)-yl)-3,3-difluoro-2,2-dimethylpropan-1-one], the IC50 stood at 0.167 µM.

Take `C#Cc1cncc2c1O[C@H]1C[C@@H]2N(C(=O)C23CCC(C(F)(F)F)(CC2)C3)C1` [Compound 2-33, ((2S,5S)-9-ethynyl-2,3-dihydro-2,5-methanopyrido[3,4-f][1,4]oxazepin-4(5H)-yl)(4-(trifluoromethyl)bicyclo [2.2.1]heptan-1-yl)methanone]: the IC50 amounted to 0.038 µM.
